Measured values reported in patent US5219839A, “Adenosine derivatives, their methods of preparation and pharmaceutical compositions in which they are present” (Laboratories UPSA, priority 1992, dated 1993).

How the values were obtained:
A1 receptors = target: T1, A1 receptors (Rattus norvegicus, UniProt P25099); assay: Binding to adenosine A1 receptors: competitive displacement of [^3 H] PIA, rat brain membranes; conditions: [^3 H] PIA 2.5 nM, n=3; for inhibition at 10 µM: 10^-5 M, read-out: % displacement of the labeled ligand, A1, 1E-5M; for % displacement of the labeled ligand, A1, 1E-7M: 0.1 µM
T1 construct: the brain is quickly removed and washed in cold isotonic solution; from tissue; host or cells: rat brain hemispheres (membrane homogenate)
T1 sequence (P25099 1-326): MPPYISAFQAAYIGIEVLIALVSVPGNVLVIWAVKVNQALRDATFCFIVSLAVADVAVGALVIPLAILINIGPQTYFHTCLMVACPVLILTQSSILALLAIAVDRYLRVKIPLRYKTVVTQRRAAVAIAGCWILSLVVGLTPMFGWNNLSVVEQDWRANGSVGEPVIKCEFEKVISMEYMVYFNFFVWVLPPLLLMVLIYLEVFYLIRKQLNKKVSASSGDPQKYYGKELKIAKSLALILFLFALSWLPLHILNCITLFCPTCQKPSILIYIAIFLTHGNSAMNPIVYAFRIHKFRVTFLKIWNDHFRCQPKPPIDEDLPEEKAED
Description: (§1) The affinity of the products of the Examples for the rat central A1 and A2 adenosinergic receptors is determined by the competitive technique using a radioactive ligand specifically bound either to the A1 receptors ([^3 H] PIA) or to the A2 receptors ([^3 H] NECA).
After the animal has been sacrificed by decapitation, the brain is quickly removed and washed in cold isotonic solution. The two hemispheres are separated and weighed and each of them is introduced into a polyallomer tube containing 25 volumes of cold homogenization buffer. Homogenization is effected using an Ultra-Turrax for 30 seconds (3 times 10 seconds with 10-second intervals, 70% of the maximum speed). The ground material obtained is centrifuged at 1000 g (≈3000 rpm) for 10 minutes at 4° C.
The supernatant is centrifuged again at 48,000 g (≈20,000 rpm) for 20 minutes at 4° C.
When this step is complete, the residue is taken up with 4 volumes of homogenization buffer, resuspended using a Vortex and homogenized with the Ultra-Turrax. Adenosine deaminase is then added at a rate of 1 U/ml, i.e. 1 μl/ml of homogenate, using a 10 μl Hamilton syringe.
After this treatment, the homogenate is shaken for 30 minutes at room temperature and then centrifuged at […] (≈20,000 rpm) for 30 minutes at 4° C.
The residue obtained is resuspended in 10 volumes of homogenization buffer and passed through the Ultra-Turrax for 20 seconds (2 times 10 seconds with a 10-second interval, 70% of the maximum speed).
The homogenate prepared in this way is used for the competitive tests. It is kept at 4° C. if the studies take place the same day, or stored at -20° C. in the form of 10 ml aliquots.
After the homogenate has been thawed at room temperature, it is passed through a Potter homogenizer (6 manual to-and-fro movements, speed 6), diluted to 2/5 in incubation buffer and placed in a water bath thermostated at 4° C., with shaking, until the end of the experiment.
(§2) 50 μl of [^3 H] PIA at 100 nM, i.e. 2.5 nM in the final reaction medium allowing for the 1/40 dilution, and 50 μl of the product of the Example at the concentrations considered (10^-5 M and 10^-7 M) are introduced into the reaction tubes. The reaction is initiated by the addition of 1 ml of homogenate and 900 μl of incubation buffer. The procedure is identical for all the beta-blockers studied.
(§3) The tubes are shaken and incubated in a water bath at 20° C. for 30 minutes. When the incubation is complete, the contents of the tubes are filtered on Whatman GF/B paper. Each tube is washed twice with 2 ml of rinsing buffer and then the filters themselves are rinsed with 3 ml of this same buffer.
The filters are then transferred to counting flasks and 10 ml of liquid scintillator (Ready Solv HP/b, Beckman) are added.
After they have been shaken, the flasks are stored in a refrigerator overnight and the radioactivity is then determined in a liquid scintillation counter.
(§4) 3 tests are performed for each concentration studied. The non-specific binding of the [^3 H] PIA is assessed by measuring the amount of radioactivity retained on the filter in the presence of 10^-5 M phenylisopropyladenosine (PIA). The value of the non-specific binding is systematically subtracted from that of the tests.
(§5) The results are expressed for each product in the form of the percentage displacement (n=3) of the labeled radioligand at concentrations of 10^-5 M and 10^-7 M.

A2 receptors = target: T2, A2 receptors (Rattus norvegicus, UniProt P30543); assay: Binding to adenosine A2 receptors: competitive displacement of [^3 H] NECA, rat striatum membranes; conditions: [^3 H] NECA 4 nM, n=3; for % displacement of the labeled ligand, A2, 1E-7M: 0.1 µM; for inhibition at 10 µM: read-out: % displacement of the labeled ligand, A2, 1E-5M
T2 construct: The two hemispheres are separated and the striatum is removed from each of them (Bruns et al., 1986); from tissue; host or cells: rat striatum (membrane homogenate)
Description: as §1
After decapitation of the animal, the brain is quickly removed and washed in cold isotonic solution. The two hemispheres are separated and the striatum is removed from each of them (Bruns et al., 1986), weighed and introduced into a polyallomer tube containing 10 volumes of cold homogenization buffer. The tissue is homogenized with an Ultra-Turrax for 30 seconds (3 times 10 seconds with 10-second intervals, 70% of the maximum speed). The ground material is centrifuged at 50,000 g (≈20,500 rpm) for 10 minutes at 4° C.
The residue obtained is resuspended in 10 volumes of homogenization buffer using a Vortex and homogenized with the Ultra-Turrax (5 to 10 seconds, 70% of the maximum speed).
Adenosine deaminase is then added at a rate of 1 U/ml, i.e. 1 μl/ml of homogenate, using a 10 μl Hamilton syringe. The homogenate treated in this way is shaken at room temperature for 30 minutes.
When the incubation is complete, the homogenate is centrifuged at 50,000 g (≈20,500 rpm) for 10 minutes at 4° C.
The residue is taken up with 5 volumes of cold homogenization buffer and passed through the Ultra-Turrax (2 times 10 seconds with a 10-second interval, 70% of the maximum speed) and the homogenate prepared in this way is finally frozen at -70° C.
After the homogenate has been thawed at room temperature, 15 volumes of incubation buffer are added. The homogenate is shaken on a Vortex, passed through a Potter homogenizer (6 to-and-fro movements, speed 6), diluted to 1/10 in incubation buffer and finally placed in a water bath thermostated at 4° C., with shaking, until the end of the experiment.
as §2, with “NECA” for “PIA”, “160” for “100”, “4” for “2.5”, “similar” for “identical”, “compounds” for “beta-blockers”
as §3, with “25°” for “20°”, “60” for “30”, “buffer before being transferred to counting flasks.” for “buffer.”
10 ml of liquid scintillator (Ready Solv HP/b, Beckman) are added to all the flasks. These are shaken and stored in a refrigerator overnight. The radioactivity is determined in a liquid scintillation counter.
as §4, with “NECA” for “PIA”, “determined” for “assessed”, “5 μM N-ethylcarboxamidoadenosine (NECA).” for “10^-5 M phenylisopropyladenosine (PIA).”
as §5

[1] = system: twisting and stretching movements in mice; assay: Phenylbenzoquinone test (analgesic activity); format: in vivo; conditions: one hour before phenylbenzoquinone i.p., 5 minutes observation; for ED50: Mus musculus, po, read-out: Phenylbenzoquinone test 50% inhibitory dose
Description: The intraperitoneal injection of phenylbenzoquinone causes twisting and stretching movements in mice. Analgesics prevent or reduce this syndrome, which can be considered as the exteriorization of diffuse abdominal pain.
A 0.02% solution of phenylbenzoquinone in water is administered in a volume of 1 ml/100 g.
The products of the Examples are administered orally one hour before the injection of phenylbenzoquinone.
The stretching and twisting movements are counted for each mouse over an observation period of 5 minutes.

T2 sequence (P30543 whole entry): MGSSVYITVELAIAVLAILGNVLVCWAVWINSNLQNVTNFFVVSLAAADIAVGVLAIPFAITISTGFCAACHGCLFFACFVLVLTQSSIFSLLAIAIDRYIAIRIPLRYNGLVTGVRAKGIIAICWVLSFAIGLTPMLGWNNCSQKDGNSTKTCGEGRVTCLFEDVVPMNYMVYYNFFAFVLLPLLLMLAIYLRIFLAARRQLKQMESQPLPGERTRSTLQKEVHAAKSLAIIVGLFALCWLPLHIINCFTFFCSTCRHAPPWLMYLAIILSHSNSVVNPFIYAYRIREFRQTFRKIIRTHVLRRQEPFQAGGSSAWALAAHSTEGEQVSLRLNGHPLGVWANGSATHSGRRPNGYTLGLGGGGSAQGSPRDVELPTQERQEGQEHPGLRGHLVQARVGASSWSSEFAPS

With O=C(NC1CC1)[C@H]1O[C@@H](n2cnc3c(NCC4CC4(c4ccccc4)c4ccccc4)ncnc32)[C@H](O)[C@@H]1O (single isomer, unassigned) [Example 44, β-D-Ribofuranuronamido-N-cyclopropyl-1-deoxy-1-[6-[(-)-[[2,2-diphenylcyclopropyl]methyl]amino]-9H-purin-9-yl]] the inhibition at 10 µM (A1 receptors) was 90%, the “% displacement of the labeled ligand, A1, 1E-7M” value (A1 receptors; 10^-7 M) was 10% and the “% displacement of the labeled ligand, A2, 1E-5M” value (A2 receptors; 10^-5 M, 10 µM) was 100%. The “% displacement of the labeled ligand, A2, 1E-7M” value (A2 receptors; 10^-7 M) was 19% and the “Phenylbenzoquinone test 50% inhibitory dose” value ([1]; p.o.) was “≈ 1 mg/kg”.
O=C(NC1CC1)[C@H]1O[C@@H](n2cnc3c(NCC4CC4(c4ccccc4)c4ccccc4)ncnc32)[C@H](O)[C@@H]1O (single isomer, unassigned) [Example 43, β-D-Ribofuranuronamido-N-cyclopropyl-1-deoxy-1-[6-[(+)-[[2,2-diphenylcyclopropyl]methyl]amino]-9H-purin-9-yl]] was tested, and the inhibition at 10 µM (A1 receptors) was 97%, the “% displacement of the labeled ligand, A1, 1E-7M” value (A1 receptors; 10^-7 M) was 44% and the inhibition at 10 µM (A2 receptors; 10^-5 M) was 96%. The “% displacement of the labeled ligand, A2, 1E-7M” value (A2 receptors; 10^-7 M) was 73% and the ED50 [1] was 1.2 mg/kg.
Compound CCNC(=O)[C@H]1O[C@@H](n2cnc3c(NCC4CC4(c4ccccc4)c4ccccc4)ncnc32)[C@H](O)[C@@H]1O (mixture of isomers) [Example 41, β-D-Ribofuranuronamido-N-ethyl-1-deoxy-1-[6-[(±)-[[2,2-diphenylcyclopropyl]methyl]amino]-9H-purin-9-yl]] has an inhibition at 10 µM (A1 receptors) of 98%, an inhibition at 0.1 µM (A1 receptors; 10^-7 M, read-out: % displacement of the labeled ligand, A1, 1E-7M) of 31% and an inhibition at 10 µM (A2 receptors; 10^-5 M) of 100%. It also gave an inhibition at 0.1 µM (A2 receptors; 10^-7 M, read-out: % displacement of the labeled ligand, A2, 1E-7M) of 68% and an ED50 [1] of 0.5 mg/kg.
